In US12612412B2, “Antiviral heterocyclic compounds” (Enanta Pharmaceuticals, Inc., priority 2021, dated 2026):
pEC50: −log10 of the molar value.

Tests used:
[1] = system: genotype A, "Long" strain RSV; assay: RSV-A assay (CPE protection in Hep-2 cells, ATPlite readout); assay type: cell-based, Human respiratory syncytial virus (HRSV); settings: human respiratory syncytial virus, genotype A “Long” strain RSV, MOI 0.1, CPE protection, read-out: Human RSV-A (“Long”)
How it was run: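 Compound effect on RSV-induced CPE: Hep-2 monolayers, MOI 0.1, duplicate 2-fold titrations, 5-day culture in 10% FBS DMEM. Readout is ATP-based luminescence, normalised to virus-only and no-virus controls, giving EC50.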

[2] = system: HMPV clinical isolate TN/1501/A1; assay: HMPV antiviral assay Method-B (clinical isolate TN/1501/A1 in LLC-MK2 cells, ATP-Lite readout); assay type: cell-based, Human metapneumovirus (HMPV); settings: human metapneumovirus, LLC-MK2, 144 h, hMPV WT1501 (clinical isolate TN/1501/A1), 6 days
How it was run: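 LLC-MK2 cells infected in suspension with TN/1501/A1 at MOI 0.014 in serum-free medium with 2 μg/mL TPCK-trypsin (final), incubated 6 days at 37° C. Compounds tested in duplicate, 10-point 3-fold dilutions from 10 μM. Cell health read by ATP-Lite luminescence, normalised to virus-only and cells-only controls; EC50 by four-parameter logistic fit.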

| pEC50 [1] | pEC50 [2] | SMILES |
| --- | --- | --- |
| > 6.70 | > 6.30 | COc1cc(C(=O)NC[C@](O)(c2cc3c(c(-c4csc5c(F)cccc45)n2)OC[C@]3(C)C(N)=O)C(F)(F)F)cc2cc(Cl)c(C)nc12 [Example 596] |
| > 6.70 | < 6.30 | C[C@]1(C(N)=O)COc2c1cc([C@@](O)(CNC(=O)c1cc(OC3CC3)n3nc(C4CC4)cc3c1)C(F)(F)F)nc2-c1csc2c(F)cccc12 [Example 597] |
| > 6.70 | > 6.30 | COc1cc(C(=O)NC[C@](O)(c2cc3c(c(-c4csc5c(F)cccc45)n2)OC[C@]3(C)C(N)=O)C(F)(F)F)cc2cc(C3CC3)nn12 [Example 598] |
| > 6.70 | > 6.30 | COc1cc(C(=O)NC[C@](O)(c2cc3c(c(-c4csc5c(F)cccc45)n2)OC[C@]3(C)C(N)=O)C(F)(F)F)cc2cn(C3(F)CC3)nc12 [Example 599] |
| > 6.70 | > 6.30 | COc1cc(C(=O)NC[C@](O)(c2cc3c(c(-c4csc5c(F)cccc45)n2)OC[C@]3(C)C(N)=O)C(F)(F)F)cc2cn(C(F)F)nc12 [Example 600] |
| > 6.70 | > 6.30 | Cc1cnc2c(Cl)cc(C(=O)NC[C@](O)(c3cc4c(c(-c5csc6c(F)cccc56)n3)OC[C@]4(C)C(N)=O)C(F)(F)F)cc2c1 [Example 601] |
| > 6.70 | > 6.30 | COc1cc(C(=O)NC[C@](O)(c2cc3c(c(-c4csc5c(F)cccc45)n2)OC[C@]3(C)C(N)=O)C(F)(F)F)cc2cc(Br)cnc12 [Example 602] |
| > 6.70 | < 6.30 | Cc1nc2c(OC3CC3)cc(C(=O)NC[C@](O)(c3cc4c(c(-c5csc6c(F)cccc56)n3)OC[C@]4(C)C(N)=O)C(F)(F)F)cc2cc1Cl [Example 603] |
| > 6.70 | > 6.30 | COc1cc(C(=O)NC[C@](O)(c2cc3c(c(-c4csc5c(F)cccc45)n2)OC[C@]3(C)C(N)=O)C2CC2)cc2cn(C3(F)CC3)nc12 [Example 604] |
| > 6.70 | > 6.30 | C[C@]1(C(N)=O)COc2c1cc([C@@](O)(CNC(=O)c1cc(OC3CC3)c3nn(C4(F)CC4)cc3c1)C(F)(F)F)nc2-c1csc2c(F)cccc12 [Example 605] |
| > 6.70 | > 6.30 | C[C@]1(C(N)=O)COc2c1cc([C@@](O)(CNC(=O)c1cc(OC3CC3)c3nn(C(F)F)cc3c1)C(F)(F)F)nc2-c1csc2c(F)cccc12 [Example 606] |
| > 6.70 | > 6.30 | C[C@]1(C(N)=O)COc2c1cc([C@@](O)(CNC(=O)c1cc(OC3CC3)c3nn(C4(F)CC4)cc3c1)C1CC1)nc2-c1csc2c(F)cccc12 [Example 607] |
| > 6.70 | > 6.30 | C[C@]1(C(N)=O)COc2c1cc([C@@](O)(CNC(=O)c1cc(F)c3nn(C4CC4)cc3c1)C1CC1)nc2-c1csc2c(F)cccc12 [Example 608] |
| > 6.70 | > 6.30 | C[C@]1(C(N)=O)COc2c1cc([C@@](O)(CNC(=O)c1cc(Cl)c3nn(C4CC4)cc3c1)C(F)(F)F)nc2-c1csc2c(F)cccc12 [Example 609] |
| > 6.70 | > 6.30 | C[C@]1(C(N)=O)COc2c1cc([C@@](O)(CNC(=O)c1cc(OCC3CC3)c3nn(C4(F)CC4)cc3c1)C(F)(F)F)nc2-c1csc2c(F)cccc12 [Example 610] |
| > 6.70 | > 6.30 | C[C@]1(C(N)=O)COc2c1cc([C@@](O)(CNC(=O)c1cc(OCC(F)F)c3nn(C4(F)CC4)cc3c1)C(F)(F)F)nc2-c1csc2c(F)cccc12 [Example 611] |
| > 6.70 | > 6.30 | C[C@]1(C(N)=O)COc2c1cc([C@@](O)(CNC(=O)c1cc(OCCF)c3nn(C4(F)CC4)cc3c1)C(F)(F)F)nc2-c1csc2c(F)cccc12 [Example 612] |
| > 6.70 | > 6.30 | COc1cc(C(=O)NC[C@](O)(c2cc3c(c(-c4cc(Cl)c(F)cc4F)n2)OC[C@]3(C)C(N)=O)C(F)(F)F)cc2cn(C3(F)CC3)nc12 [Example 613] |
| > 6.70 | < 6.30 | COc1cc(C(=O)NC[C@](O)(c2cc3c(c(-c4cc(Cl)c(F)cc4F)n2)OC[C@]3(C)C(N)=O)C(F)(F)F)cc2cn(C(F)F)nc12 [Example 614] |
| > 6.70 | > 6.30 | C[C@]1(C(N)=O)COc2c1cc([C@@](O)(CNC(=O)c1cc(OC3CC3)c3nn(C4(F)CC4)cc3c1)C(F)(F)F)nc2-c1cc(Cl)c(F)cc1F [Example 615] |
| > 6.70 | > 6.30 | C[C@]1(C(N)=O)COc2c1cc([C@@](O)(CNC(=O)c1cc(OCC3CC3)c3nn(C4(F)CC4)cc3c1)C(F)(F)F)nc2-c1cc(Cl)c(F)cc1F [Example 616] |
| > 6.70 | > 6.30 | C[C@]1(C(N)=O)COc2c1cc([C@@](O)(CNC(=O)c1cc(OCC(F)F)c3nn(C4(F)CC4)cc3c1)C(F)(F)F)nc2-c1cc(Cl)c(F)cc1F [Example 617] |
| > 6.70 | > 6.30 | C[C@]1(C(N)=O)COc2c1cc([C@@](O)(CNC(=O)c1cc(OCCF)c3nn(C4(F)CC4)cc3c1)C(F)(F)F)nc2-c1cc(Cl)c(F)cc1F [Example 618] |

| pEC50 [1] | pEC50 [2] | SMILES |
| --- | --- | --- |
| > 6.70 | > 6.30 | C[C@]1(C(N)=O)COc2c1cc([C@@](O)(CNC(=O)c1cc(Cl)c3nn(C4CC4)cc3c1)C(F)(F)F)nc2-c1cc(Cl)c(F)cc1F [Example 619] |
| > 6.70 | > 6.30 | COc1cc(C(=O)NC[C@](O)(c2cc3c(c(-c4cc(Cl)c(F)cc4F)n2)OC[C@]3(C)C(N)=O)C(F)(F)F)cc2cc(Cl)c(C)nc12 [Example 620] |
| > 6.70 | > 6.30 | COc1cc(C(=O)NC[C@](O)(c2cc3c(c(-c4cc(Cl)c(F)cc4F)n2)OC[C@]3(C)C(N)=O)C(F)(F)F)cc2cc(Br)cnc12 [Example 621] |
| > 6.70 | > 6.30 | C[C@]1(C(N)=O)COc2c1cc([C@@](O)(CNC(=O)c1cc(Cl)c3nn(C4CC4)cc3c1)C1CC1)nc2-c1csc2c(F)cccc12 [Example 622] |
| > 6.70 | < 6.30 | C[C@]1(C(N)=O)COc2c1cc([C@@](O)(CNC(=O)c1ccc(F)c(NC(=O)NC3CC3)c1)C(F)(F)F)nc2-c1ccc(F)cc1 [Example 623] |
| > 6.70 | < 6.30 | C[C@]1(C(N)=O)COc2c1cc([C@@](O)(CNC(=O)c1cc(F)c(F)c(NC(=O)NC3CC3)c1)C(F)(F)F)nc2-c1ccc(F)cc1 [Example 624] |
| > 6.70 | < 6.30 | COc1ccc(C(=O)NC[C@](O)(c2cc3c(c(-c4ccc(F)cc4)n2)OC[C@]3(C)C(N)=O)C(F)(F)F)cc1NC(=O)NC1CC1 [Example 625] |
| > 6.70 | < 6.30 | C[C@]1(C(N)=O)COc2c1cc([C@@](O)(CNC(=O)c1ccc(F)c(NC(=O)NC3CC3)c1)C(F)(F)F)nc2-c1ccc(F)c(Cl)c1 [Example 626] |
| > 6.70 | < 6.30 | COc1ccc(C(=O)NC[C@](O)(c2cc3c(c(-c4ccc(F)c(Cl)c4)n2)OC[C@]3(C)C(N)=O)C(F)(F)F)cc1NC(=O)NC1CC1 [Example 627] |
| < 6.70 | < 6.30 | C[C@]1(C(N)=O)COc2c1cc([C@@](O)(CNC(=O)c1cc(F)cc(NC(=O)NC3CC3)c1)C(F)(F)F)nc2-c1ccc(F)cc1 [Example 628] |
| > 6.70 | > 6.30 | COc1cc(C(=O)NC[C@](O)(c2cc3c(c(-c4ccc(F)c(Cl)c4)n2)OC[C@]3(C)C(N)=O)C2CC2)cc2cc(Cl)c(C)nc12 [Example 633] |
| > 6.70 | > 6.30 | COc1cc(C(=O)NC[C@](O)(c2cc3c(c(-c4ccc(F)c(C)c4)n2)OC[C@]3(C)C(N)=O)C(F)(F)F)cc2cn(C3CC3)nc12 [Example 636] |
| > 6.70 | > 6.30 | Cc1nc2c(OC3CC3)cc(C(=O)NC[C@](O)(c3cc4c(c(-c5ccc(F)cc5)n3)OC[C@]4(C)C(N)=O)C3CC3)cc2cc1Cl [Example 637] |
| > 6.70 | > 6.30 | Cc1nc2c(OC3CC3)cc(C(=O)NC[C@](O)(c3cc4c(c(-c5ccc(F)c(Cl)c5)n3)OC[C@]4(C)C(N)=O)C3CC3)cc2cc1Cl [Example 638] |
| > 6.70 | > 6.30 | COc1cc(C(=O)NC[C@](O)(c2cc3c(c(-c4ccc5c(c4)OC(F)(F)O5)n2)OC[C@]3(C)C(N)=O)C(F)(F)F)cn2cc(C3CC3)nc12 [Example 639] |
| > 6.70 | > 6.30 | COc1cc(C(=O)NC[C@](O)(c2cc3c(c(-c4ccc5c(c4)OC(F)(F)O5)n2)OC[C@]3(C)C(N)=O)C(F)(F)F)cc2cc(Cl)c(C)nc12 [Example 640] |
| > 6.70 | < 6.30 | CC[C@](O)(CNC(=O)c1cc(OC)c2nn(C3CC3)cc2c1)c1cc2c(c(-c3ccc(F)cc3)n1)OC[C@]2(C)C(N)=O [Example 642] |
| > 6.70 | > 6.30 | CC[C@](O)(CNC(=O)c1cc(OC)c2nc(C)c(Cl)cc2c1)c1cc2c(c(-c3ccc(F)cc3)n1)OC[C@]2(C)C(N)=O [Example 643] |
| < 6.70 | < 6.30 | COc1cc(C(=O)NC[C@](O)(c2cc3c(c(-c4ccc(F)cc4)n2)OC[C@]3(C)C(N)=O)C2CCCC2)cc2cn(C3CC3)nc12 [Example 644] |
| > 6.70 | < 6.30 | [2H]C([2H])([2H])[C@](O)(CNC(=O)c1cc(OC)c2nn(C3CC3)cc2c1)c1cc2c(c(-c3ccc(F)cc3)n1)OC[C@]2(C)C(N)=O [Example 645] |
| > 6.70 | < 6.30 | [2H]C([2H])([2H])[C@](O)(CNC(=O)c1cc(OC2CC2)c2ncccc2c1)c1cc2c(c(-c3ccc(F)cc3)n1)OC[C@]2(C)C(N)=O [Example 646] |
| > 6.70 | < 6.30 | [2H]C([2H])([2H])[C@](O)(CNC(=O)c1cc(OC(F)F)c2ncc(C)cc2c1)c1cc2c(c(-c3ccc(F)cc3)n1)OC[C@]2(C)C(N)=O [Example 647] |
